The data set concerns H-460 human lung cancer cells. It is filed as cell-based. Particulars: for IC50: H-460 human lung cancer cells.

Peptide text beside a SMILES is read from it.

As usually defined, the IC50 is the concentration needed to halve the response being measured.

Consider `C#CCCC[C@@H]1OC(=O)[C@H](C(C)C)NC(=O)[C@H](C)N(C)C(=O)[C@@H]2CCCN2C(=O)[C@H](Cc2ccccc2)OC(=O)[C@H](C(C)C)N(C)C(=O)[C@H](C(C)C)NC(=O)C1(C)C` [viequeamide B] (HELM PEPTIDE1{V.[meV].[O=C([C@H](Cc1ccccc1)O[*:1])[*:2]].P.[meA].V}|CHEM1{[C#CCCC[C@H](O[*:2])C(C)(C)C(=O)[*:1]]}$PEPTIDE1,CHEM1,1:R1-1:R1|PEPTIDE1,CHEM1,6:R2-1:R2$$$V2.0), for which the H-460 cytotoxicity entry is recorded as “no appreciable H-460 cytotoxicity”.

With `C=CCCC[C@@H]1OC(=O)[C@H](C(C)C)NC(=O)[C@H](C)N(C)C(=O)[C@@H]2CCCN2C(=O)[C@H](Cc2ccccc2)OC(=O)[C@H](C(C)C)N(C)C(=O)[C@H](C(C)C)NC(=O)C1(C)C` [viequeamide C] (HELM PEPTIDE1{V.[meV].[O=C([C@H](Cc1ccccc1)O[*:1])[*:2]].P.[meA].V}|CHEM1{[C=CCCC[C@H](O[*:2])C(C)(C)C(=O)[*:1]]}$PEPTIDE1,CHEM1,1:R1-1:R1|PEPTIDE1,CHEM1,6:R2-1:R2$$$V2.0), the H-460 cytotoxicity entry is listed as “no appreciable H-460 cytotoxicity”.

Turning to `CCCCC[C@@H]1OC(=O)[C@H](C(C)C)NC(=O)[C@H](C)N(C)C(=O)[C@@H]2CCCN2C(=O)[C@H](Cc2ccccc2)OC(=O)[C@H](C(C)C)N(C)C(=O)[C@H](C(C)C)NC(=O)C1(C)C` [viequeamide D] (HELM PEPTIDE1{V.[meV].[O=C([C@H](Cc1ccccc1)O[*:1])[*:2]].P.[meA].V}|CHEM1{[CCCCC[C@H](O[*:2])C(C)(C)C(=O)[*:1]]}$PEPTIDE1,CHEM1,1:R1-1:R1|PEPTIDE1,CHEM1,6:R2-1:R2$$$V2.0), the H-460 cytotoxicity entry is given as “no appreciable H-460 cytotoxicity”.

In turn, viequeamide A2 came in with an IC50 of 620 nM.

viequeamide A3 registered an IC50 of 1980 nM.

In the case of viequeamide G, the H-460 cytotoxicity result is “no appreciable H-460 cytotoxicity”.

On to viequeamide H, for which the H-460 cytotoxicity entry was “no appreciable H-460 cytotoxicity”.

Take viequeamide X: the H-460 cytotoxicity result is recorded as “no appreciable H-460 cytotoxicity”.

The record behind these values is patent publication US20190265319A1, “SYSTEM AND METHOD FOR SMALL MOLECULE ACCURATE RECOGNITION TECHNOLOGY ("SMART")” (THE REGENTS OF THE UNIVERSITY OF CALIFORNIA, priority 2016, published 2019).
